Source: patent US20120270819A1, “USE OF COMPOUNDS WITH SGLT-1/SGLT-2 INHIBITOR ACTIVITY FOR PRODUCING MEDICAMENTS FOR TREATMENT OF BONE DISEASE” (SANOFI, priority 2009, published 2012)

System: female Sprague-Dawley mature and young adult rats
Assay: Ex vivo peripheral quantitative computed tomography (pQCT) of right femur (metaphysis, diaphysis, length)
Format: in vivo, rat
Settings: Young Adults; for pQCT femur (diaphysis) CSMI / pQCT femur (diaphysis) Cortical Area / pQCT femur (diaphysis) Cortical BMC / pQCT femur (diaphysis) Cortical BMD / pQCT femur (diaphysis) Cortical Thickness / pQCT femur (diaphysis) Endosteal Circumference / pQCT femur (diaphysis) Periosteal Circumference / pQCT femur (diaphysis) Total Area / pQCT femur (diaphysis) Total BMC / pQCT femur (diaphysis) Total BMD / pQCT femur Length / pQCT femur metaphysis C/SC (Cortical/Subcortical) BMC / pQCT femur metaphysis C/SC (Cortical/Subcortical) BMD / pQCT femur metaphysis Total Area / pQCT femur metaphysis Total BMC / pQCT femur metaphysis Total BMD / pQCT femur metaphysis Trabecular BMC / pQCT femur metaphysis Trabecular BMD: mean
Procedure: The following were evaluated: clinical signs (at least weekly), body weight (weekly), food consumption (weekly), hormones (Days 13 and 27), serum and urinary biochemical markers of bone turnover (Days 13 and 27), serum chemistry (at necropsy), bone densitometry by dual energy X-ray absorptiometry (DXA) and peripheral quantitative computed tomography (pQCT) (Week 2 and 4, as well as ex vivo), macroscopic observations at necropsy, organ weights, histopathology, biomechanical strength testing and femoral length measurements.
3.2 Ex Vivo Peripheral Quantitative Computed Tomography (pQCT)
Peripheral QCT scans were performed ex vivo using an XCT Research SA or SA+ bone scanner with software version 5.50D. Scans were obtained for the right femur, L3 and L4 lumbar vertebra for all animals euthanized at the end of the treatment period as well as two found dead animals. These two animals were scanned twice due to technical oversight, however only the first scans obtained were reported and the second scans were kept with the study file, this had no impact on the study as both scans were considered equivalent.
For the femurs, the scanned site was at the expected 3-point bending fracture site (diaphysis). This site was analyzed using Cortmode 2 for cortical bone measurements only (Table 5). An additional slice was obtained in the metaphysis. The metaphysis scan was not performed for the femur of three animals due to condyles detachment from the femur during trimming.
The femoral length was measured as part of the ex vivo pQCT scanning procedures and was reported for the right femur of all animals with the exception of 3 animas due to damaged femoral condyles.
All analyses were performed using the LOOP option of the analysis software. All other data generated as a result of the LOOP option were retained with the raw data but not reported. The most appropriate analysis mode for the femur and the lumbar vertebrae was used and documented in the raw data and the analysis details are presented in Table 6. All scan analysis data was retained and re-analyses documented.

Question: Which “pQCT femur (diaphysis) CSMI, percent difference from Vehicle Control” value (10 mg/kg/day) does the source give for `COc1ccc(Cc2c(OC3OC(CO)C(F)C(O)C3O)n[nH]c2C(F)(F)F)cc1` (stereo not drawn) [Example 5 of formula II] here?
Answer: The value was −1.3%.

Question: What about the “pQCT femur (diaphysis) Cortical Area, percent difference from Vehicle Control” value (10 mg/kg/day) of the same molecule?
Answer: The value was −0.4%.

Question: And the “pQCT femur (diaphysis) Cortical BMC, percent difference from Vehicle Control” value (10 mg/kg/day)?
Answer: The value was −0.8%.

Question: What about the “pQCT femur (diaphysis) Cortical BMD, percent difference from Vehicle Control” value (10 mg/kg/day) of the same molecule?
Answer: Its value is −0.4%.

Question: What about the “pQCT femur (diaphysis) Cortical Thickness, percent difference from Vehicle Control” value (10 mg/kg/day) of the same molecule?
Answer: Its value is 0.15%.

Question: And the “pQCT femur (diaphysis) Endosteal Circumference, percent difference from Vehicle Control” value (10 mg/kg/day)?
Answer: Its value is −0.7%.

Question: And the “pQCT femur (diaphysis) Periosteal Circumference, percent difference from Vehicle Control” value (10 mg/kg/day)?
Answer: The value was −1.2%.

Question: What about the “pQCT femur (diaphysis) Total Area, percent difference from Vehicle Control” value (10 mg/kg/day) of the same molecule?
Answer: Its value is −0.9%.

Question: And the “pQCT femur (diaphysis) Total BMC, percent difference from Vehicle Control” value (10 mg/kg/day)?
Answer: The value was 0.2%.

Question: What about the “pQCT femur (diaphysis) Total BMD, percent difference from Vehicle Control” value (10 mg/kg/day) of the same molecule?
Answer: Its value is 1.1%.

Question: What about the “pQCT femur Length, percent difference from Vehicle Control” value (10 mg/kg/day) of the same molecule?
Answer: Its value is −3.8%.

Question: And the “pQCT femur metaphysis C/SC BMC, percent difference from Vehicle Control” value (10 mg/kg/day)?
Answer: Its value is 10.7%.

Question: What about the “pQCT femur metaphysis C/SC BMD, percent difference from Vehicle Control” value (10 mg/kg/day) of the same molecule?
Answer: Its value is 6.8%.

Question: And the “pQCT femur metaphysis Total Area, percent difference from Vehicle Control” value (10 mg/kg/day)?
Answer: Its value is 3.7%.

Question: What about the “pQCT femur metaphysis Total BMC, percent difference from Vehicle Control” value (10 mg/kg/day) of the same molecule?
Answer: Its value is 16.7%.

Question: What about the “pQCT femur metaphysis Total BMD, percent difference from Vehicle Control” value (10 mg/kg/day) of the same molecule?
Answer: Its value is 12.6%.

Question: What about the “pQCT femur metaphysis Trabecular BMC, percent difference from Vehicle Control” value (10 mg/kg/day) of the same molecule?
Answer: The value was 41.4%.

Question: What about the “pQCT femur metaphysis Trabecular BMD, percent difference from Vehicle Control” value (10 mg/kg/day) of the same molecule?
Answer: Its value is 36.4%.

Question: And the “pQCT femur (diaphysis) CSMI” value (10 mg/kg/day)?
Answer: The value was 3.8 mm^4.

Question: What about the “pQCT femur (diaphysis) Cortical Area” value (10 mg/kg/day) of the same molecule?
Answer: Its value is 4.7 mm^2.

Question: What about the “pQCT femur (diaphysis) Cortical BMC” value (10 mg/kg/day) of the same molecule?
Answer: The value was 5.6 mg/mm.

Question: What about the “pQCT femur (diaphysis) Cortical BMD” value (10 mg/kg/day) of the same molecule?
Answer: Its value is 1182.8 mg/cm^3.

Question: And the “pQCT femur (diaphysis) Cortical Thickness” value (10 mg/kg/day)?
Answer: Its value is 0.54 mm.

Question: What about the “pQCT femur (diaphysis) Endosteal Circumference” value (10 mg/kg/day) of the same molecule?
Answer: Its value is 6.9 mm.

Question: What about the “pQCT femur (diaphysis) Periosteal Circumference” value (10 mg/kg/day) of the same molecule?
Answer: Its value is 10.2 mm.

Question: What about the “pQCT femur (diaphysis) Total Area” value (10 mg/kg/day) of the same molecule?
Answer: Its value is 8.6 mm^2.

Question: What about the “pQCT femur (diaphysis) Total BMC” value (10 mg/kg/day) of the same molecule?
Answer: The value was 6.2 mg/mm.

Question: What about the “pQCT femur (diaphysis) Total BMD” value (10 mg/kg/day) of the same molecule?
Answer: Its value is 721.8 mg/cm^3.

Question: And the “pQCT femur Length” value (10 mg/kg/day)?
Answer: Its value is 31.9 mm.

Question: And the “pQCT femur metaphysis C/SC (Cortical/Subcortical) BMC” value (10 mg/kg/day)?
Answer: Its value is 7.9 mg/mm.

Question: What about the “pQCT femur metaphysis C/SC (Cortical/Subcortical) BMD” value (10 mg/kg/day) of the same molecule?
Answer: Its value is 877.1 mg/cm^3.

Question: What about the “pQCT femur metaphysis Total Area” value (10 mg/kg/day) of the same molecule?
Answer: The value was 15.0 mm^2.

Question: What about the “pQCT femur metaphysis Total BMC” value (10 mg/kg/day) of the same molecule?
Answer: Its value is 10.3 mg/mm.

Question: And the “pQCT femur metaphysis Total BMD” value (10 mg/kg/day)?
Answer: Its value is 690.2 mg/cm^3.

Question: What about the “pQCT femur metaphysis Trabecular BMC” value (10 mg/kg/day) of the same molecule?
Answer: Its value is 2.5 mg/mm.

Question: And the “pQCT femur metaphysis Trabecular BMD” value (10 mg/kg/day)?
Answer: The value was 410.7 mg/cm^3.

Question: What about the “pQCT femur (diaphysis) CSMI, percent difference from Vehicle Control” value (50 mg/kg/day) of the same molecule?
Answer: The value was 0.6%.

Question: And the “pQCT femur (diaphysis) Cortical Area, percent difference from Vehicle Control” value (50 mg/kg/day)?
Answer: Its value is −0.6%.

Question: What about the “pQCT femur (diaphysis) Cortical BMC, percent difference from Vehicle Control” value (50 mg/kg/day) of the same molecule?
Answer: Its value is −0.7%.

Question: And the “pQCT femur (diaphysis) Cortical BMD, percent difference from Vehicle Control” value (50 mg/kg/day)?
Answer: The value was −0.1%.

Question: What about the “pQCT femur (diaphysis) Cortical Thickness, percent difference from Vehicle Control” value (50 mg/kg/day) of the same molecule?
Answer: The value was −0.01%.

Question: And the “pQCT femur (diaphysis) Endosteal Circumference, percent difference from Vehicle Control” value (50 mg/kg/day)?
Answer: Its value is −0.7%.

Question: What about the “pQCT femur (diaphysis) Periosteal Circumference, percent difference from Vehicle Control” value (50 mg/kg/day) of the same molecule?
Answer: The value was −0.3%.

Question: What about the “pQCT femur (diaphysis) Total Area, percent difference from Vehicle Control” value (50 mg/kg/day) of the same molecule?
Answer: Its value is −0.7%.

Question: What about the “pQCT femur (diaphysis) Total BMC, percent difference from Vehicle Control” value (50 mg/kg/day) of the same molecule?
Answer: The value was 0.0%.

Question: What about the “pQCT femur (diaphysis) Total BMD, percent difference from Vehicle Control” value (50 mg/kg/day) of the same molecule?
Answer: Its value is 0.9%.

Question: And the “pQCT femur Length, percent difference from Vehicle Control” value (50 mg/kg/day)?
Answer: The value was −4.9%.

Question: And the “pQCT femur metaphysis C/SC BMC, percent difference from Vehicle Control” value (50 mg/kg/day)?
Answer: The value was 18.4%.

Question: What about the “pQCT femur metaphysis C/SC BMD, percent difference from Vehicle Control” value (50 mg/kg/day) of the same molecule?
Answer: The value was 13.6%.

Question: What about the “pQCT femur metaphysis Total Area, percent difference from Vehicle Control” value (50 mg/kg/day) of the same molecule?
Answer: Its value is 4.3%.

Question: What about the “pQCT femur metaphysis Total BMC, percent difference from Vehicle Control” value (50 mg/kg/day) of the same molecule?
Answer: The value was 33.0%.

Question: And the “pQCT femur metaphysis Total BMD, percent difference from Vehicle Control” value (50 mg/kg/day)?
Answer: Its value is 27.6%.

Question: And the “pQCT femur metaphysis Trabecular BMC, percent difference from Vehicle Control” value (50 mg/kg/day)?
Answer: Its value is 92.0%.

Question: What about the “pQCT femur metaphysis Trabecular BMD, percent difference from Vehicle Control” value (50 mg/kg/day) of the same molecule?
Answer: Its value is 84.7%.

Question: And the “pQCT femur (diaphysis) CSMI” value (50 mg/kg/day)?
Answer: The value was 3.9 mm^4.

Question: What about the “pQCT femur (diaphysis) Cortical Area” value (50 mg/kg/day) of the same molecule?
Answer: Its value is 4.7 mm^2.

Question: And the “pQCT femur (diaphysis) Cortical BMC” value (50 mg/kg/day)?
Answer: Its value is 5.6 mg/mm.

Question: And the “pQCT femur (diaphysis) Cortical BMD” value (50 mg/kg/day)?
Answer: The value was 1186.1 mg/cm^3.

Question: And the “pQCT femur (diaphysis) Cortical Thickness” value (50 mg/kg/day)?
Answer: The value was 0.54 mm.

Question: And the “pQCT femur (diaphysis) Endosteal Circumference” value (50 mg/kg/day)?
Answer: Its value is 7.0 mm.

Question: And the “pQCT femur (diaphysis) Periosteal Circumference” value (50 mg/kg/day)?
Answer: Its value is 10.2 mm.

Question: What about the “pQCT femur (diaphysis) Total Area” value (50 mg/kg/day) of the same molecule?
Answer: The value was 8.6 mm^2.

Question: And the “pQCT femur (diaphysis) Total BMC” value (50 mg/kg/day)?
Answer: Its value is 6.2 mg/mm.

Question: And the “pQCT femur (diaphysis) Total BMD” value (50 mg/kg/day)?
Answer: The value was 720.6 mg/cm^3.

Question: What about the “pQCT femur Length” value (50 mg/kg/day) of the same molecule?
Answer: Its value is 31.6 mm.

Question: What about the “pQCT femur metaphysis C/SC (Cortical/Subcortical) BMC” value (50 mg/kg/day) of the same molecule?
Answer: The value was 8.4 mg/mm.

Question: And the “pQCT femur metaphysis C/SC (Cortical/Subcortical) BMD” value (50 mg/kg/day)?
Answer: Its value is 932.6 mg/cm^3.

Question: And the “pQCT femur metaphysis Total Area” value (50 mg/kg/day)?
Answer: Its value is 15.1 mm^2.

Question: And the “pQCT femur metaphysis Total BMC” value (50 mg/kg/day)?
Answer: The value was 11.8 mg/mm.

Question: What about the “pQCT femur metaphysis Total BMD” value (50 mg/kg/day) of the same molecule?
Answer: Its value is 782.0 mg/cm^3.

Question: And the “pQCT femur metaphysis Trabecular BMC” value (50 mg/kg/day)?
Answer: Its value is 3.4 mg/mm.

Question: What about the “pQCT femur metaphysis Trabecular BMD” value (50 mg/kg/day) of the same molecule?
Answer: Its value is 556.0 mg/cm^3.
